Laboratory results as given in patent US20230108050A1, “CXCL8 (INTERLEUKIN-8) ACTIVITY INHIBITOR AND CORTICOSTEROID COMBINATION AND PHARMACEUTICAL COMPOSITION AND USE THEREOF” (Dompe' farmaceutici SpA, priority 2020, published 2023).

Legend:
Type in all cases: in vivo, BALB/c mice
[1] = system: Th17 glucocorticoid-insensitive asthma mouse model; test: Assessment of pulmonary mechanics, Example 1e; settings: ladarixin 10 mg/Kg oral, dexamethasone 5 mg/Kg s.c.; FIG. 5B
Method: (§1) The investigation was conducted by using a Th17 glucocorticoid-insensitive asthma mouse model previously described (Campa C C et al., Nat Commun (2018), v. 9, p. 5232 and Dejager Let al., Mucosal Immunol (2015), v. 8, p 1212-25).
(§2) In details, BALB/c mice received systemic immunization by subcutaneous injection of 20 μg of chicken egg ovalbumin (OVA grade V, >98% pure; Sigma, St Louis, Mo.) in saline, emulsified in 75 μL CFA (Sigma-Aldrich) at day 0.
(§3) From day 28 after first immunization to day 31, mice were treated with PBS (vehicle), ladarixin, dexamethasone or ladarixin/dexamethasone as described below, and 60 minutes later exposed to aerosolized ovalbumin (1% in saline) for 20 minutes per day. Ladarixin was administered orally by gavage (10 mg/Kg in saline 0.9%), as previously described (Bertini et al., Br J Pharmacol (2012), v. 165, p. 436-54), once a day. Dexamethasone was administered subcutaneously (5 mg/Kg in saline), once a day.
(§4) Mice form different experimental groups were anesthetized with a subcutaneous injection of ketamine and xylazine (130 mg/Kg ketamine and 8.5 mg/Kg xylazine) to maintain spontaneous breathing under anesthesia. […] Under mechanical respiration the Dynamic Compliance (Cdyn) and Lung Resistance (RI) were determined by Resistance and Compliance RC test. […]

[2] = system: Th17 glucocorticoid-insensitive asthma mouse model; test: Histological analysis of lung, pulmonary inflammation score, Example 1d; settings: ladarixin 10 mg/Kg oral, dexamethasone 5 mg/Kg s.c.; six grade scale 0-5; FIG. 4D, FIG. 3
Method: In details, BALB/c mice received systemic immunization by subcutaneous injection of 20 μg of chicken egg ovalbumin (OVA grade V, >98% pure; Sigma, St Louis, Mo.) in saline, emulsified in 75 μL CFA (Sigma-Aldrich) at day 0. […]
Semiquantitative histopathology analyses were performed as described (Campa C C et al., Nat Commun (2018), v. 9, p. 5232). Briefly, ten random images per lung were acquired at 200× and pulmonary inflammation score was recorded according to a six grade scale where “0” corresponded to less than 1% of lung tissue area inflamed, “1” where up to 9% of lung area was affected by inflammation, “2” when 10% to 29% of lung tissue area was affected, “3” if 30% to 49% of lung tissue area was affected, “4” if 50% to 69% of lung tissue area was affected and “5” if more than 70% of the lung tissue area was affected by inflammation.
After BALF, left lung was removed and fixed in formalin 4% in PBS (pH 7.4), as previously described. […] Photomicrographs were obtained at 400× magnification and were analyzed using the software Image Pro Plus (Image-Pro Plus 4.1, Media Cybernetics, USA) under light microscopy. […]

[3] = system: Th17 glucocorticoid-insensitive asthma mouse model; test: Leukocytes and protein leakage in airways (BALF), Example 1a; settings: day 28-31, OVA aerosol
Method: as §1, §2, §3
An assessment of total leukocytes content in airways was carried out by performing bronchoalveolar lavage fluid (BALF) as previously described (Russo et al Am J Respir Cell Mol Biol (2009), v. 40, p. 410-21; Campa C C et al., Nat Commun (2018), v. 9, p. 5232). Briefly, an incision was made in the trachea where a 1.7 mm outside diameter polyethylene catheter was inserted. Then, the airways were washed 2 times with 1 mL of phosphate buffer saline (PBS). The samples were centrifuged at 300×g for 10 minutes at 4° C., the pellet was collected, resuspended in 100 μL of 3% BSA in PBS and a sample from this solution was used to assess the total leukocytes in the airways. The remaining was centrifuged at 300×g for 10 minutes at 4° C. on a histology glass slide to assess differential counting of macrophages, lymphocytes, eosinophils and neutrophils using an optical microscopy. Total protein was quantified in the BALF supernatant using a Bio-Rad protein assay Dye Reagent (Bio-Rad, USA) to measure possible protein leakage as previously described (Campa C C et al., Nat Commun (2018), v. 9, p. 5232).

[4] = system: Th17 glucocorticoid-insensitive asthma mouse model; test: Neutrophil peroxidase activity (MPO) in lung tissue, Example 1c; settings: ladarixin 10 mg/Kg oral, dexamethasone 5 mg/Kg s.c.; after OVA exposure; FIG. 4A
Method: MPO assay was performed on the lung tissue in the different experimental mice groups. In details, MPO assay was performed in a 96-well microplate by adding, in each well, 25 μL of 3,3′-5,5′-tetramethylbenzidine (TMB Sigma) diluted in dimethyl sulfoxide (DMSO; Merck, Darmstadt, Germany) at a final concentration of 1.6 mM; 100 μL of H2O2 0.02% vol/vol in PBS (pH 5.4) containing HTAB and 25 μL of processed tissue supernatant. The reaction started, at 37° C., by adding the TMB solution and the supernatant to the microplate and, after 5 min, H2O2 was added followed by a new incubation at 37° C. for 5 min. The reaction was stopped by adding 100 μL of H2SO4 1M and quantified at 450 nm wavelengths in a spectrophotometer (VERSA max, Molecular Devices, CA).

[5] = system: Th17 glucocorticoid-insensitive asthma mouse model; test: Cytokines quantification in lung tissue (ELISA), Example 1b; settings: ladarixin 10 mg/Kg oral, dexamethasone 5 mg/Kg s.c., lung lysate ELISA
Method: as §1, §2, §3
The levels of IL17A and TNF-α were also measured in the different experimental mice groups. […] Levels of IL-17A and TNF-α were measured by ELISA using commercial DuoSet kits from R&D Systems, according to the instructions of the manufacturer. Results, shown in FIG. 2, are expressed as pg of cytokines per ml of lung lysate (pg/ml).

[6] = system: Th17 glucocorticoid-insensitive asthma mouse model; test: Lung histology (H&E), Example 2e; settings: DF2755A 10 mg/kg oral twice a day, dexamethasone 5 mg/kg, FIG. 9
Method: After BALF, left lung was removed and fixed in formalin 4% in PBS (pH 7.4). The tissue was dehydrated gradually in ethanol, embedded in paraffin, cut into 4 μm sections and stained with Hematoxylin and Eosin. Photomicrographs were obtained at 400× magnification and were analyzed using the software Image Pro Plus (Image-Pro Plus 4.1, Media Cybernetics, USA).

[7] = system: Th17 glucocorticoid-insensitive asthma mouse model; test: Assessment of leukocyte content in the airways (BALF), Example 2a; settings: DF2755A 10 mg/kg oral twice a day, dexamethasone 5 mg/kg, BALF day 32
Method: The investigation was conducted on the same mouse model as described in Example 1. In details, BALB/c mice received systemic immunization by subcutaneous injection of 20 μg of chicken egg ovalbumin (OVA grade V, >98% pure; Sigma, St Louis, Mo.) in saline, emulsified in 75 μL CFA (Sigma-Aldrich) at day 0. From day 28 after first immunization to day 31, mice were treated with PBS (vehicle), D[…], dexamethasone or D[…]/dexamethasone as described below, and 60 minutes later exposed to aerosolized ovalbumin (1% in saline) for 20 minutes per day. D[…] was administered orally by gavage twice a day so that one of the administrations was always 60 min before the OVA challenge. D[…] was diluted in saline 0.9% only at the time of use at room temperature and used at the dose of 10 mg/kg via the oral route. […] To assess leukocyte infiltration in the airways, bronchoalveolar lavage fluid (BALF) was performed. On day 32 after immunization, an incision was made in the trachea where a 1.7 mm outside diameter polyethylene catheter was inserted. Then, the airways were washed 2 times with 1 mL of phosphate buffer saline (PBS). The samples were centrifuged at 300×g for 10 minutes at 4° C., and 100 μL of 3% BSA in PBS was added to the pellet. A sample of this solution was used to assess the total leukocytes in the airways. The remaining solution was centrifuged at 300×g for 10 minutes at 4° C. and put on a histology glass slide to perform the differential counting of macrophages, lymphocytes, eosinophils and neutrophils using an optical microscopy. The supernatant was used to quantify the amount of total protein and the levels of chemokines and cytokines. The total protein assay was determined using a Bio-Rad protein assay Dye Reagent (Bio-Rad, USA) to measure possible protein leakage.

[8] = system: Th17 glucocorticoid-insensitive asthma mouse model; test: Neutrophil myeloperoxidase and eosinophil peroxidase activity assays in lung, Example 2c; settings: DF2755A 10 mg/kg oral twice a day, dexamethasone 5 mg/kg
Method: From day 28 after first immunization to day 31, mice were treated with PBS (vehicle), DF2755A, dexamethasone or DF2755A/dexamethasone as described below, and 60 minutes later exposed to aerosolized ovalbumin (1% in saline) for 20 minutes per day. DF2755A was administered orally by gavage twice a day so that one of the administrations was always 60 min before the OVA challenge. DF2755A was diluted in saline 0.9% only at the time of use at room temperature and used at the dose of 10 mg/kg via the oral route. Dexamethasone was diluted in saline 0.9% only at the time of use at room temperature and given at the dose of 5 mg/kg. […]
The neutrophil myeloperoxidase (MPO) and eosinophil peroxidase (EPO) activities were measured as follows. […] The reaction was stopped by adding 100 μL of H2SO4 and quantified at 450 nm wave lengths in a spectrophotometer (VERSAmax, Molecular Devices, CA). […] After 30 minutes of incubation at room temperature, the reaction was stopped by adding 50 μL of H2SO4 1M and quantified at 492 nm in spectrophotometer.

[9] = system: Th17 glucocorticoid-insensitive asthma mouse model; test: Assessment of pulmonary mechanics, Example 2d; settings: DF2755A 10 mg/kg oral twice a day, dexamethasone 5 mg/kg; 24 h after the last challenge; FIG. 8
Method: as §2, with “The investigation was conducted on the same mouse model as described in Example 1. In” for “In”
(§5) From day 28 after first immunization to day 31, mice were treated with PBS (vehicle), DF2755A, dexamethasone or DF2755A/dexamethasone as described below, and 60 minutes later exposed to aerosolized ovalbumin (1% in saline) for 20 minutes per day. DF2755A was administered orally by gavage twice a day so that one of the administrations was always 60 min before the OVA challenge. DF2755A was diluted in saline 0.9% only at the time of use at room temperature and used at the dose of 10 mg/kg via the oral route. Dexamethasone was diluted in saline 0.9% only at the time of use at room temperature and given at the dose of 5 mg/kg.
as §4, with “Mice” for “Mice form different experimental groups”

[10] = system: Th17 glucocorticoid-insensitive asthma mouse model; test: Chemokine and cytokine analysis in lung (ELISA), Example 2b; settings: DF2755A 10 mg/kg oral twice a day, dexamethasone 5 mg/kg, lung supernatant ELISA
Method: as §2, with “The investigation was conducted on the same mouse model as described in Example 1. In” for “In”
as §5
After BALF, the right lung was removed and a sample of 100 mg was homogenized in 1 mL of PBS (0.4 M NaCl and 10 mM of NaPO4) containing anti-proteases (0.1 mM phenylmethylsulfonyl fluoride, 0.1 mM benzetonium chloride, 10 mM EDTA and 20 KI aprotinin A). The homogenate was centrifuged 8,000×g for 10 minutes at 4° C. The supernatant was frozen for further ELISA assay and the pellet was frozen/thawed three times using liquid nitrogen to assess neutrophil myeloperoxidase (MPO) and eosinophil peroxidase (EPO) activities.
The chemokines CXCL1/KC, CCL2/MCP-1 and CCL24/Eotaxin2, and cytokines TNF-α, IFN-γ and IL-17A levels in supernatant of lung tissue were measured by ELISA. Results were expressed as levels of cytokines (pg/mL or ng/mL) per 0.1 g of wet tissue/mL of extraction buffer.

In the case of `C[C@@H](C(=O)NS(C)(=O)=O)c1ccc(OS(=O)(=O)C(F)(F)F)cc1` [ladarixin], the “airway hyperreactivity evoked by methacholine (ΔRI)” value [1] is reported as “able to reduce airway hyperreactivity”, the “pulmonary inflammation score (lung histology)” value [2] is reported as “effective in reducing inflammation” and the “total leukocyte influx into alveolar space (BALF)” value ([3]; ladarixin 10 mg/Kg oral once a day, dexamethasone 5 mg/Kg s.c. once a day, FIG. 1A) is reported as “reduces total leukocyte influx”. For the same compound, the “macrophages infiltrated into airways (BALF)” value ([3]; ladarixin 10 mg/Kg oral, dexamethasone 5 mg/Kg s.c., FIG. 1B) was “marked reduction”, the “neutrophils infiltrated into airways (BALF)” value ([3]; ladarixin 10 mg/Kg oral, dexamethasone 5 mg/Kg s.c., FIG. 1C) was “marked reduction” and the “eosinophil recruitment into the airways (BALF)” value ([3]; ladarixin 10 mg/Kg oral, dexamethasone 5 mg/Kg s.c., FIG. 1D) was “increased”. For the same compound, the “neutrophil accumulation in lung parenchyma (MPO activity)” value [4] was “able to prevent the neutrophil accumulation”, the “TNF-α level in lung parenchyma” value ([5]; FIG. 2A) was “significantly decreased” and the “IL-17A level in lung parenchyma” value ([5]; FIG. 2B) was “significantly decreased”.
With `C[C@H](C(=O)O)c1ccc(Nc2nc(C(F)(F)F)cs2)cc1` [DF2755A, (2S)-2-(4-{[4-(trifluoromethyl)-1,3-thiazol-2-yl]amino}phenyl) propanoic acid] the “lung inflammation, accumulation of leukocytes in the lung tissue (histology, inflammatory score)” value [6] was “effective in reducing accumulation of leukocytes”, the “neutrophil influx into the airways (BALF)” value ([7]; day 28-31, FIG. 6B) was “able to reduce” and the “eosinophil influx into the airways (BALF)” value ([7]; FIG. 6C) was “able to reduce”. The “lymphocytes influx into the airways (BALF)” value ([7]; FIG. 6E) was “able to reduce”, the “accumulation of neutrophils in the lungs (MPO activity)” value ([8]; FIG. 6F) was “prevented the infiltration” and the “infiltration of eosinophils in the lungs (EPO activity)” value ([8]; FIG. 6G) was “prevented the infiltration”. For the same compound, the “pulmonary function / pulmonary mechanics (pulmonary volumes and resistance)” value [9] was “did not significantly increased pulmonary function”, the “CXCL1 level in the lungs” value ([10]; FIG. 7A) was “significantly reduced” and the “CCL2 level in the lungs” value ([10]; FIG. 7B) was “significantly reduced”. The “CCL24 level in the lungs” value ([10]; FIG. 7C) was “significantly reduced”, the “IFN-γ level in the lungs” value ([10]; FIG. 7D) was “not significant” and the “IL-17 level in the lungs” value ([10]; FIG. 7E) was “significantly reduced”. The “TNF-α level in the lungs” value ([10]; FIG. 7F) was “significantly reduced”.
